# Measured values taken from patent US20110130380A1, “Heteroaryl Kinase Inhibitors” (priority 2009, published 2011).
# Molecular target: Cdk9/cyclinT1 (Homo sapiens, UniProt P50750)
# Experiment: Cdk9/cyclinT1 IMAP Protocol (fluorescence polarization kinase assay)
# Conditions: Cdk9_cyclinT1_IC50, Table V; generated using one of the two Cdk9/cyclinT1 assays (IMAP or Alpha Screen), not stated which; ATP 6 uM
# Cdk9/cyclinT1, sequence (P50750 whole entry): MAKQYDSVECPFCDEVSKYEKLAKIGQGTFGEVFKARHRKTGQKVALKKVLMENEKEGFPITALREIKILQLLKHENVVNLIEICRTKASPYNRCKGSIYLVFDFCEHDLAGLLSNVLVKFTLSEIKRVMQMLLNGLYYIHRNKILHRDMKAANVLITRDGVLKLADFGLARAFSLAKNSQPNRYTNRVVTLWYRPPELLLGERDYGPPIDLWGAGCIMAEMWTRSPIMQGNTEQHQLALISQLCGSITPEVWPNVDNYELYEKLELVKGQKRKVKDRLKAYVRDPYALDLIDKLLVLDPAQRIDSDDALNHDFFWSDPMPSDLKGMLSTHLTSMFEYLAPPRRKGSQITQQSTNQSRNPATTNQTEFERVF
# Cdk9/cyclinT1, sequence (O60563 whole entry partner): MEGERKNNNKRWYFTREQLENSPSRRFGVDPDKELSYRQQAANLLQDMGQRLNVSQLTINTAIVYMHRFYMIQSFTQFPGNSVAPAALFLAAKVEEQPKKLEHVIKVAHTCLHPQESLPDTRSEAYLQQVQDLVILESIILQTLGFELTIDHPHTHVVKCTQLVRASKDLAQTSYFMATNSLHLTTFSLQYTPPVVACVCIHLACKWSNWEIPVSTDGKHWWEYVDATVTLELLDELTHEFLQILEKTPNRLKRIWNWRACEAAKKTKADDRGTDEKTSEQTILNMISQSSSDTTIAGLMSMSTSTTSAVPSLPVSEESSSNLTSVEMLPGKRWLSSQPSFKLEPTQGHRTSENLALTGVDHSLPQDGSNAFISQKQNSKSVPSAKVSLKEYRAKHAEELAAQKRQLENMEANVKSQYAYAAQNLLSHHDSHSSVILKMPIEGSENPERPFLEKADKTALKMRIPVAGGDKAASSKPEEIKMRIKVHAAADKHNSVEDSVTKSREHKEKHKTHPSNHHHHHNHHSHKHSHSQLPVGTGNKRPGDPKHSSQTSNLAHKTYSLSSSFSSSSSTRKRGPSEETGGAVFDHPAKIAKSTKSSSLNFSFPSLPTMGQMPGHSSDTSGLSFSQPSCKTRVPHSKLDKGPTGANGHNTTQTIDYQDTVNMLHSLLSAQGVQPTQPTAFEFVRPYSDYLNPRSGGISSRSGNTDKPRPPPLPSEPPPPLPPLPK
row,SMILES,IC50
1,"O=C(COc1ccc(Cl)cn1)Nc1cc(-c2cccc(NCC3CCOCC3)n2)c(Cl)cn1 [Example 103, 2-(5-Chloro-pyridin-2-yloxy)-N-{5′-chloro-6-[(tetrahydro-pyran-4-ylmethyl)-amino]-[2,4′]bipyridinyl-2′-yl}-acetamide]",27 nM
2,"CC(C)S(=O)(=O)N[C@@H]1CC[C@H](C(=O)Nc2cc(-c3nc(NCC4CCOCC4)ccc3Cl)c(Cl)cn2)C1 [Example 114, (1S,3R)-3-(Propane-2-sulfonylamino)-cyclopentanecarboxylic acid {3,5′-dichloro-6-[(tetrahydro-pyran-4-ylmethyl)-amino]-[2,4′]bipyridinyl-2′-yl}-amide]",< 8 nM
3,"CC1(C)CO[C@@H](CNc2cccc(-c3cc(NC(=O)[C@@H]4CCCNC4)ncc3Cl)n2)CO1 (single isomer, unassigned) [Example 231]",1 nM
4,"C[C@@H](O)CNc1cccc(-c2cc(NC(=O)[C@@H]3CCCNC3)ncc2Cl)n1 [Example 29, (R)-Piperidine-3-carboxylic acid [5′-chloro-6-((R)-2-hydroxy-propylamino)-[2,4′]bipyridinyl-2′-yl]-amide]",26 nM
5,"C[C@@H]1CC[C@@H](C(=O)Nc2cc(-c3cccc(NC[C@@H]4CCOC(C)(C)C4)n3)ccn2)CN1 (mixture of isomers) [Example 226, (3R,6R)-/(3S,6S)-6-Methyl-piperidine-3-carboxylic acid {6-[((R)-2,2-dimethyl-tetrahydro-pyran-4-ylmethyl)-amino]-[2,4′]bipyridinyl-2′-yl}-amide]",1 nM
6,"COC1(CNc2nc(-c3cc(NC(=O)C4CCC(C)NC4)ncc3Cl)ccc2F)CCOCC1 (centres unmarked) [Example 261, 6-Methyl-piperidine-3-carboxylic acid {5′-chloro-5-fluoro-6-[(4-methoxy-tetrahydro-pyran-4-ylmethyl)-amino]-[2,4′]bipyridinyl-2′-yl}-amide]",1 nM
7,"N[C@@H]1CC[C@H](C(=O)Nc2cc(-c3cccc(NCC4CCOCC4)n3)c(Cl)cn2)C1 [Example 47, (1S,3R)-3-Amino-cyclopentanecarboxylic acid {5′-chloro-6-[(tetrahydro-pyran-4-ylmethyl)-amino]-[2,4′]bipyridinyl-2′-yl}-amide]",< 8 nM
8,"C[C@H]1CC[C@@H](C(=O)Nc2cc(-c3cccc(NCC4CCOCC4)n3)c(Cl)cn2)CN1 (racemic) [Example 126, (3R,6S)-/(3S,6R)-6-Methyl-piperidine-3-carboxylic acid {5′-chloro-6-[(tetrahydro-pyran-4-ylmethyl)-amino]-[2,4′]bipyridinyl-2′-yl}-amide]",18 nM
9,"CS(=O)(=O)N[C@H]1CC[C@@H](C(=O)Nc2cc(-c3nc(NCC4CCOCC4)ccc3Cl)c(Cl)cn2)C1 [Example 110, (1R,3S)-3-Methanesulfonylamino-cyclopentanecarboxylic acid {3,5′-dichloro-6-[(tetrahydro-pyran-4-ylmethyl)-amino]-[2,4′]bipyridinyl-2′-yl}-amide]",< 8 nM
10,"O=C(Nc1cc(-c2cccc(NCc3cccc(F)c3)n2)c(Cl)cn1)[C@@H]1CCCNC1 [Example 1, (R)-Piperidine-3-carboxylic acid [5′-chloro-6-(3-fluoro-benzylamino)-[2,4+]bipyridinyl-2′-yl]-amide]",< 8 nM
11,"C[C@@H](Nc1cccc(-c2cc(NC(=O)[C@@H]3CCCNC3)ncc2Cl)n1)C1CCOCC1 [Example 137, (R)-Piperidine-3-carboxylic acid {5′-chloro-6-[(R)-1-(tetrahydro-pyran-4-yl)-ethylamino]-[2,4′]bipyridinyl-2′-yl}-amide]",11 nM
12,"C[C@@H]1CC[C@@H](C(=O)Nc2cc(-c3ccc(F)c(NCC4CCOCC4)n3)c(Cl)cn2)CN1C (single isomer, unassigned) [Example 196]",17 nM
13,"CC1(C)CC(CNc2cccc(-c3cc(NC(=O)[C@H]4CNCCO4)ncc3Cl)n2)CCO1 (stereo partly drawn) [Example 120, (R)-Morpholine-2-carboxylic acid {5′-chloro-6-[(2,2-dimethyl-tetrahydro-pyran-4-ylmethyl)-amino]-[2,4′]bipyridinyl-2′-yl}-amide]",< 8 nM
14,"CC1(C(=O)Nc2cc(-c3cccc(NCC4CCOCC4)n3)c(Cl)cn2)CNCCO1 (centres unmarked) [Example 145, 2-Methyl-morpholine-2-carboxylic acid {5′-chloro-6-[(tetrahydro-pyran-4-ylmethyl)-amino]-[2,4′]bipyridinyl-2′-yl}-amide]",785 nM
15,"CCS(=O)(=O)N1CCC[C@H](C(=O)Nc2cc(-c3nc(NCC4CCOCC4)ccc3Cl)c(Cl)cn2)C1 [Example 111, (S)-1-Ethanesulfonyl-piperidine-3-carboxylic acid {3,5′-dichloro-6-[(tetrahydro-pyran-4-ylmethyl)-amino]-[2,4′]bipyridinyl-2′-yl}-amide]",< 8 nM
16,"O=C(Nc1cc(-c2cccc(NCC3CCOCC3)n2)c(Cl)cn1)C1CNCC(F)C1 (centres unmarked) [Example 168, 5-Fluoro-piperidine-3-carboxylic acid {5′-chloro-6-[(tetrahydro-pyran-4-ylmethyl)-amino]-[2,4′]bipyridinyl-2′-yl}-amide]",6 nM

row,SMILES,IC50
1,"O=C(Nc1cc(-c2cccc(NCc3ccc(F)cc3)n2)c(Cl)cn1)[C@@H]1CCCNC1 [Example 53, (R)-Piperidine-3-carboxylic acid [5′-chloro-6-(4-fluoro-benzylamino)-[2,4′]bipyridinyl-2′-yl]-amide]",< 8 nM
2,"O=C(Nc1cc(-c2cccc(N3CCOCC3)n2)c(Cl)cn1)[C@@H]1CCCNC1 [Example 45, (R)-Piperidine-3-carboxylic acid (5′-chloro-6-morpholin-4-yl-[2,4′]bipyridinyl-2′-yl)-amide]",154 nM
3,"CCC1(CNc2nc(-c3cc(NC(=O)[C@@H]4CCCNC4)ncc3Cl)ccc2F)CCOCC1 [Example 209, (R)-Piperidine-3-carboxylic acid {5′-chloro-6-[(4-ethyl-tetrahydro-pyran-4-ylmethyl)-amino]-5-fluoro-[2,4′]bipyridinyl-2′-yl}-amide]",1 nM
4,"CC(C)S(=O)(=O)N1CCC[C@H](C(=O)Nc2cc(-c3nc(NCC4CCOC(C)(C)C4)ccc3Cl)c(Cl)cn2)C1 (stereo partly drawn) [Example 139, (S)-1-(Propane-2-sulfonyl)-piperidine-3-carboxylic acid {3,5′-dichloro-6-[(2,2-dimethyl-tetrahydro-pyran-4-ylmethyl)-amino]-[2,4′]bipyridinyl-2′-yl}-amide]",< 8 nM
5,"O=C(Nc1cc(-c2cccc(N3CCC(c4ccccc4)CC3)n2)c(Cl)cn1)[C@@H]1CCCNC1 [Example 42, (R)-Piperidine-3-carboxylic acid (5″- chloro-4-phenyl-3,4,5,6-tetrahydro-2H-[1,2′;6′,4″]terpyridin-2″- yl)-amide]",42 nM
6,"C[C@H]1CNC[C@H](C(=O)Nc2cc(-c3cccc(NCC4CCOCC4)n3)c(Cl)cn2)C1 (racemic) [Example 104, (3R,5R)-/(3S,5S)-5-Methyl-piperidine-3-carboxylic acid {5′-chloro-6-[(tetrahydro-pyran-4-ylmethyl)-amino]-[2,4′]bipyridinyl-2′-yl}-amide]",46 nM
7,"CCS(=O)(=O)N[C@@H]1CC[C@H](C(=O)Nc2cc(-c3nc(NCC4CCOCC4)ccc3Cl)c(Cl)cn2)C1 [Example 113, (1S,3R)-3-Ethanesulfonylamino-cyclopentanecarboxylic acid {3,5′-dichloro-6-[(tetrahydro-pyran-4-ylmethyl)-amino]-[2,4′]bipyridinyl-2′-yl}-amide]",< 8 nM
8,"O=C(Nc1cc(-c2cccc(NCC3CCOCC3)n2)c(Cl)cn1)C1CCCCNC1 (centres unmarked) [Example 193, Azepane-3-carboxylic acid {5′-chloro-6-[(tetrahydro-pyran-4-ylmethyl)-amino]-[2,4′]bipyridinyl-2′-yl}-amide]",2 nM
9,"O=C(Nc1cc(-c2cccc(NCC3CCOCC3)n2)c(Cl)cn1)[C@@H]1CNC[C@@H](C(F)(F)F)C1 (single isomer, unassigned) [Example 163]",129 nM
10,"C[C@@H]1CC[C@@H](C(=O)Nc2cc(-c3cccc(NCC4CCOCC4)n3)c(Cl)cn2)CN1 (racemic) [Example 127, (3R,6R)-/(3S,6S)-6-methyl-piperidine-3-carboxylic acid {5′-chloro-6-[(tetrahydro-pyran-4-ylmethyl)-amino]-[2,4′]bipyridinyl-2′-yl}-amide]",9 nM
11,"O=C(Nc1cc(-c2nc(NCC3CCOCC3)ccc2Cl)c(Cl)cn1)C1CCOCC1 [Example 97, Tetrahydro-pyran-4-carboxylic acid {3,5′-dichloro-6-[(tetrahydro-pyran-4-ylmethyl)-amino]-[2,4′]bipyridinyl-2′-yl}-amide]",10 nM
12,"CC[C@H]1CC[C@H](C(=O)Nc2cc(-c3cccc(NCC4CCOCC4)n3)c(Cl)cn2)CN1 (single isomer, unassigned) [Example 241]",9 nM
13,"CC1(C)COC[C@@H](CNc2cccc(-c3cc(NC(=O)[C@@H]4CCCNC4)ncc3Cl)n2)O1 (single isomer, unassigned) [Example 233]",1 nM
14,"COCCOC[C@@H]1C[C@@H](C(=O)Nc2cc(-c3cccc(NCC4(C)CCOCC4)n3)c(Cl)cn2)CN1 [Example 258, (3R,5S)-5-(2-Methoxy-ethoxymethyl)-pyrrolidine-3-carboxylic acid {5′-chloro-6-[(4-methyl-tetrahydro-pyran-4-ylmethyl)-amino]-[2,4′]bipyridinyl-2′-yl}-amide]",2 nM
15,"O=C(Nc1cc(-c2cccc(NCC3CCOCC3)n2)c(Cl)cn1)[C@H]1CNC[C@@H](C(F)(F)F)C1 (racemic) [Example 148, (3R,5S)-/(3S,5R)-5-Trifluoromethyl-piperidine-3-carboxylic acid {5′-chloro-6-[(tetrahydro-pyran-4-ylmethyl)-amino]-[2,4′]bipyridinyl-2′-yl}-amide]",< 8 nM

# Same assay, conditions: Cdk9_cyclinT1_IC50, generated using one of the two Cdk9/cyclinT1 assays (IMAP or Alpha Screen), not specified per value; ATP 6 uM
row,SMILES,IC50
1,"O=C(Nc1cc(-c2cncc(NCC3CCOCC3)c2)c(Cl)cn1)[C@@H]1CCCNC1 [Example 301, (R)-Piperidine-3-carboxylic acid {5′-chloro-5-[(tetrahydro-pyran-4-ylmethyl)-amino]-[3,4′]bipyridinyl-2′-yl}-amide]",< 8 nM
